Assay results reported in paper PMC11989212, “Experimental Conditions to Retrieve Intrinsic Cooperativity α Directly from Single Binding Assay Data Exemplified by the Ternary Complex Formation of FKBP12, MAPRE1 and Macrocyclic Molecular Glues” (International Journal of Molecular Sciences, 2025).

Tests used:
[1] = Precipitation seen in the spectral shift titration; type: physicochemical; conditions: assay buffer, high concentrations
Description: Therefore, measurements from the highest concentration samples had to be removed, which impaired the determination of the interpolation curve. Moreover, the signal is much smaller compared to the other studied ligands. […] This is a deviation from the theoretically found true value of 1985 nM − 2.5 nM = 1982.5 nM. The KT,2 is 2% below the EC50 value of the %Tbound, ternary curve. The apparent cooperativity of 460,000 nM/1985 nM = 232 is still below the cooperativity α of 460,000 nM/1941 = 237 (Figure 10b).
A 1:2 dilution series of all compounds (starting from the 10 mM stock concentration) was prepared in pure DMSO. Each concentration was diluted 25-fold with assay buffer (20 mM HEPES, pH 7.4, 150 mM NaCl, 1 mM DTT (all from Carl Roth, Karlsruhe, Germany), and 0.01% Pluronic F-127 (Sigma Aldrich, Taufkirchen, Germany)). Next, 10 µL from each of the prepared ligand dilutions was transferred into an empty well on a Dianthus Microwell Plate (DI-P001A). […] For all interactions measured via FKBP12, the target was prepared at a final concentration of 40 nM, supplemented with 5 nM NTA fluorophore. […] The resulting spectral shift signal (Ratio 670 nm/650 nm) was plotted against compound concentration and analyzed in the DI.Screening Analysis software, version 2.1.1.

[2] = tested on: FKBP12:R,S-SLF-X:MAPRE1 ternary complex; design: method as in PMID 40059881; conditions: TR-FRET proximity assay, reported earlier; cited from earlier work

## C=C1CCN2C(=O)COc3cccc(c3)C(CCc3ccc(OC)c(OC)c3)OC(=O)C3CCCCN3C(=O)C(=O)C(C)(C)COC(=O)C(CN)NC(=O)C2C1 (centres unmarked) [R,S-SLF-7]
[1]
  precipitation: precipitation at high concentrations
[2]
  TR-FRET Recruitment Assay (%Amax): 45%
